Legend:
[1] = system: patient-derived melanoma xenograft (PDX); assay: PDX model of melanoma in NCG mice; format: in vivo; conditions: PDX; intravenous injection 20 mg/kg every two days for 21 days; vs PBX1 ASO scramble
Procedure: PDX model of melanoma: fresh tumor tissues are collected immediately after surgery, placed in RPMI 1640 medium containing penicillin/streptomycin (100 U/ml; 100 μg/ml), fungal zone (1 μg/ml) and Genta Mycin (50 μg/ml) (all from Gibco, USA) (4,5). According to the institutional review and the ethical guidelines for this study approved by the Ethics Committee of the Second Hospital of Jilin University, fresh tumor samples from patients suffering from melanoma are collected for transplantation with informed consent. The mice were kept and all procedures are performed under the approval and supervision of the Institutional Animal Care and Use Committee (IACUC) of the School of Public Health of Jilin University (Changchun, China). Necrotic tissues are excised before transplantation, and tumor tissues are minced to a size of 2×2×2 mm^3, and implanted subcutaneously in the flank of 6-week-old NCG male mice to generate first-generation (F1) PDX mice. Successfully transplanted tumor models are passaged and stored using standard methods. H&E staining is used to evaluate the morphology of patient tumor specimens and xenografts of established PDX models. Treatment with ASO Scr or ASO (intravenous injection, 20 mg/kg) is initiated when the tumor volume of the mice reached 220-280 mm^3. Tumor growth and body weight measurements are performed. Tumors are dissected at the end of treatment for further processing for RNA, protein and histological analysis.
Control:mG*mT*mC*mC*mA*mC*mA*mA*mA*mC*mA*mC*mA*mA*mC*mT*mC* mC*mT*mG*). […] This example also establishes short-term cultures of patient-derived melanoma xenograft (PDX)-derived tumor cells (PDCs) (FIG. 5D). […] To further expand the analysis, this embodiment establishes the PDX model of melanoma, and […] is administered intravenously (intravenous injection) every two days for 21 days.

B16-F10 cells = assay: In vivo tumor metastasis assay, B16-F10 tail vein injection; set-up: species or system mice; conditions: B16-F10 tail vein; PDS 5 mg/kg twice a day, 16 consecutive days
Procedure: In vivo tumor metastasis assay: 2×10^5 B16-F10 cells are injected into the tail vein of tail vein tumor. According to solutions formulated by the NCI Animal Care and Use Committee, metastatic endpoints are determined for each experiment by maximal primary tumor burden and/or appearance of moribund mice in all treatment groups. PDS (5 mg/kg) is administered twice a day, for 16 consecutive days.
(§1) Bioluminescent tumor cell tracking: in vivo whole-animal imaging, anesthetized mice are injected intraperitoneally with 3 mg of d-luciferin (MCE, USA). Luminescence data is collected on an IVIS system (Perkin Elmer, USA). For live tissue imaging, tissues are perfused with PBS, harvested, and incubated in PBS with 1 μg/ml-1d-luciferin. Data analysis is performed using an IVIS Image software package.

A375 melanoma cells = assay: In vivo tumor growth experiment, A375 xenograft in nude mice
Procedure: In vivo tumor growth experiment: to evaluate the effect of PBX1 on growth of in vivo tumors, before inoculation, male nude mice of 6 weeks (BALB/C background) are randomly divided into designated groups (5 per group). 1×10^6 A375 melanoma cells are injected subcutaneously into the upper flank of the back of each mouse. After injection, the mice are administered with PDS drug for treatment for 21 days (once every two days), and after the mice are sacrificed, the tumor weight is measured.
as §1

NCCOc1cc(C(=O)Nc2cc(OCCN)c3ccccc3n2)nc(C(=O)Nc2cc(OCCN)c3ccccc3n2)c1 [PDS, Pyridostatin]
tumor growth [1]: inhibits | metastasis of xenograft tumors (lung) (B16-F10 cells): remarkably inhibits | growth of xenograft tumors (A375 melanoma cells; A375 subcutaneous, nude mice, treatment 21 days once every two days): remarkably inhibits | expression of PBX1 in xenograft tumors (A375 melanoma cells; qRT-PCR and IHC staining): downregulating

Reference: patent US20240076667A1, “APPLICATION OF ANTISENSE OLIGONUCLEOTIDE TARGETING PBX1 PROMOTER REGION G-QUADRUPLEX IN PREPARATION OF MEDICINE FOR TREATING MELANOMA” (JILIN UNIVERSITY, priority 2022, published 2024)
